The source of these data is patent EP0115820A2, “Cephalosporin derivatives and process for their preparation” (Kaken Pharmaceutical Co., Ltd., priority 1983, dated 1984).

Common to all, as to assay: Minimum inhibitory concentration (MIC)
Common to all, as to format: cell-based

In assay [1] the test system is Pseudomonas aeruginosa E-2. Particulars: E2; Pseudomonas aeruginosa E-2; bacterial suspension 10^6 cells/ml; sodium salts tested; read-out: Minimum inhibitory concentration. The source says: (§1) The cephalosporin derivatives of the present invention are novel substances, and the antimicrobial activities of their sodium salts are shown by the minimum inhibitory concentrations (MIC, µg/ml) in Table 1, as compared with a typical known cephalosporin compound.

Assay [2] has as its system Pseudomonas aeruginosa K-13. Particulars: K13; Pseudomonas aeruginosa K-13; bacterial suspension 10^6 cells/ml; sodium salts tested; read-out: Minimum inhibitory concentration.
Text: as §1

Assay [3] relates to Serratia marcescens No. 16-2. Particulars: NO.162; Serratia marcescens No. 16-2; bacterial suspension 10^6 cells/ml; sodium salts tested; read-out: Minimum inhibitory concentration.
Text: as §1

Assay [4] deals with Pseudomonas aeruginosa Y-1. The settings on record: Y1; Pseudomonas aeruginosa Y-1; bacterial suspension 10^6 cells/ml; sodium salts tested; read-out: Minimum inhibitory concentration.
Text: as §1

The subject of assay [5] is Staphylococcus aureus 209 P JC-1. The settings on record: 209PJC1; Staphylococcus aureus 209 P JC-1; bacterial suspension 10^6 cells/ml; sodium salts tested; read-out: Minimum inhibitory concentration.
Text: as §1

Assay [6] deals with Escherichia coli NIHJ JC-2. The settings on record: NIHJJC2; Escherichia coli NIHJ JC-2; bacterial suspension 10^6 cells/ml; sodium salts tested; read-out: Minimum inhibitory concentration.
Text: as §1

A further assay deals with Proteus vulgaris GN-76. The settings on record: GN76; Proteus vulgaris GN-76; bacterial suspension 10^6 cells/ml; sodium salts tested; read-out: Minimum inhibitory concentration.
Text: as §1

Assay [7] deals with Klebsiella pneumoniae No. 42. The settings on record: Klebsiella pneumoniae No. 42; bacterial suspension 10^6 cells/ml; sodium salts tested; read-out: Minimum inhibitory concentration.
Text: as §1

`CC(=O)Oc1cccc(C(=O)NC(C(=O)N[C@@H]2C(=O)N3C(C(=O)O)=C(CSc4nnnn4C)CS[C@H]23)c2csc(N)n2)c1OC(C)=O` (mixture of isomers) [Example 4, 7β-[DL-2-(2,3-diacetoxybenzoylamino)-2-(2-aminothiazol-4-yl)acetamidol-3-(l-methyl-lH-tetrazol-5-yl-thiomethyl)-3-cephem-4-carboxylic acid]: the MIC in assay [1] was found to be 1.56 mg/L; in assay [2] it was 0.39 mg/L; in assay [3] it was 200 mg/L; in assay [4], 0.78 mg/L; in assay [5], 1.56 mg/L; in assay [6] it was 3.12 mg/L. Also, the MIC with Proteus vulgaris GN-76 came to 3.12 mg/L; in assay [7] it was 1.56 mg/L.

Regarding `CCOC(=O)Oc1ccc(C(=O)NC(C(=O)N[C@@H]2C(=O)N3C(C(=O)O)=C(COC(C)=O)CS[C@H]23)c2csc(N)n2)cc1OC(=O)OCC` (mixture of isomers) [Example 19, 7β-[DL-2-(3,4-diethoxycarbonyloxy-benzoylamino)-2-(2-aminothiazol-4-yl)acetamido]-cephalosporic acid], the MIC in assay [1] was 0.2 mg/L; in assay [2], 0.2 mg/L; in assay [3], 6.25 mg/L; in assay [4], 0.05 mg/L; in assay [5], 0.39 mg/L; in assay [6] it was 0.39 mg/L. Moreover, the results for the MIC (with Proteus vulgaris GN-76; in assay [7]) were 0.39 mg/L and 0.05 mg/L, respectively.

For `CC(=O)OCC1=C(C(=O)O)N2C(=O)[C@@H](NC(=O)C(NC(=O)c3ccccc3O)c3csc(N)n3)[C@H]2SC1` (mixture of isomers) [Example 22, 7β-[DL-2-(2-hydroxybenzoylamino)-2-(2-aminothiazol-4-yl)acetamido]cephalosporic acid], the MIC in assay [1] was 50 mg/L; in assay [2], 25 mg/L; in assay [3], more than 200 mg/L; in assay [4], 100 mg/L; in assay [5], 0.39 mg/L; in assay [6] it was 3.12 mg/L. In addition, the MIC is 6.25 mg/L in the assay with Proteus vulgaris GN-76 and 3.12 mg/L in assay [7].

In the case of `CO[C@@]1(NC(=O)C(NC(=O)c2ccc(OC(C)=O)c(OC(C)=O)c2)c2csc(N)n2)C(=O)N2C(C(=O)O)=C(CSc3nnnn3C)CS[C@@H]21` (mixture of isomers) [Example 10, 7α-methoxy-7β-[DL-2-(3,4-diacetoxy-benzoylamino)-2-(2-aminothiazol-4-yl)acetamidol-3-(1-methyl-lH-tetrazol-5-yl-thiomethyl)-3-cephem-4-carboxylic acid], the MIC in assay [1] is 0.2 mg/L; in assay [2], 0.2 mg/L; in assay [3], 3.12 mg/L; in assay [4] it was 0.2 mg/L; in assay [5], 0.78 mg/L; in assay [6], 6.25 mg/L. Further, the MIC came out at 1.56 mg/L with Proteus vulgaris GN-76 and 0.2 mg/L in assay [7].

`Cn1nnnc1SCC1=C(C(=O)O)N2C(=O)[C@@H](NC(=O)C(NC(=O)c3ccc(O)c(O)c3)c3csc(N)n3)[C@H]2SC1` (mixture of isomers) [Example 2, 7β-[DL-2-(3,4-dihydroxybenzoylamino)-2-(2-aminothiazol-4-yl)acetamido]-3-(1-methyl-1H-tetrazol-5-yl-thiomethyl)-3-cephem-4-carboxylic acid]: the MIC was determined as 0.39 mg/L in assay [1]; 0.1 mg/L in assay [2]; 100 mg/L in assay [3]; 0.2 mg/L in assay [4]; 0.39 mg/L in assay [5]; 0.78 mg/L in assay [6]. Moreover, the MIC worked out at 6.25 mg/L in the assay on Proteus vulgaris GN-76 and 0.2 mg/L in assay [7].

On to `CC(=O)OCC1=C(C(=O)O)N2C(=O)[C@@H](NC(=O)C(NC(=O)c3cccc(O)c3)c3csc(N)n3)[C@H]2SC1` (mixture of isomers) [Example 23, 73-[DL-2-(3-hydroxybenzoylamino)-2-(2-aminothiazol-4-yl)acetamidolcephalosporic acid], for which the MIC in assay [1] was more than 200 mg/L; in assay [2] it was more than 200 mg/L; in assay [3], more than 200 mg/L; in assay [4] it was more than 200 mg/L; in assay [5], 0.39 mg/L; in assay [6], 6.25 mg/L. Also, the values for the MIC (in the assay with Proteus vulgaris GN-76; in assay [7]) were 25 mg/L and 12.5 mg/L, respectively.

In the case of `CC(=O)OCC1=C(C(=O)O)N2C(=O)[C@@H](NC(=O)C(NC(=O)c3ccc(O)cc3)c3csc(N)n3)[C@H]2SC1` (mixture of isomers) [Example 24, 7β-[DL-2-(4-hydroxybenzoylamino)-2-(2-aminothiazol-4-yl)acetamido]cephalosporic acid], the MIC in assay [1] was 25 mg/L; in assay [2], 25 mg/L; in assay [3], more than 200 mg/L; in assay [4], 50 mg/L; in assay [5], 0.39 mg/L; in assay [6] it was 3.12 mg/L. Moreover, the MIC is 25 mg/L in the assay with Proteus vulgaris GN-76 and 6.25 mg/L in assay [7].
